In patent publication US20070213291A1, “Therapeutically useful synthetic oligonucleotides” (priority 1999, published 2007):

Experiments:
Format in all cases: cell-based
[1] = test system: Jurkat human leukemia T cells; assay: Cell cycle stage in Jurkat cells (propidium iodide flow cytometry); details: 24 h
Description: Cell cycle stage was determined using a […]™ PLUS DNA commercial kit (Becton Dickinson). Briefly, nuclei from cells were obtained by dissolving the cell membrane in a nonionic detergent, eliminating the cell cytoskeleton and nuclear proteins with trypsin, digesting the cellular RNA with RNase and stabilizing the nuclear chromatin with spermine. Propidium iodide was added to the cell nuclei and their fluorescence was analyzed in a flow cytometer equipped with electronic doublet discrimination capability (FACSCalibur, Becton Dickinson, San Jose, Calif.). Accumulation of cells in G0/G1, early S (SE), mid S (SM), late S (SL) or G2/M phases of the cell cycle was analyzed using MODFIT LT software (Verity Software House Inc., Topsham, Mass.).
Exponentially growing Jurkat human leukemia T cells (Table 28) and MCF-7 human breast cancer cells (5×10^5 cells/ml) (Table 29) were incubated for 24 h with 2, 6, 15, 18, 27 and 45 base sequences containing A, C, G and T. The cells were collected and centrifuged and cell cycle stage was determined.
Jurkat human cell leukemia T cells (1×10^6 cells/ml) were incubated for 24 h with 6 base GT SEQ ID NO:25, conplementary 6 base AC SEQ ID NO:79 and 6 base GT SEQ ID NO:25+6 base AC SEQ ID NO:79. GT SEQ ID NO:25 and AC SEQ ID NO:79 were hybridized by mixing the oligonucleotides (1:1) and heating for 10 minutes at 65° C. As controls, GT SEQ ID NO:25 and AC SEQ ID NO:79 were heated for 10 minutes at 65° C. (Table 30).

[2] = test system: Jurkat human leukemia T cells; assay: NuMA release into supernatant (ELISA); details: for % NUMA RELEASED: Jurkat 1×10^6/ml
Description: The redistribution of phosphatidylserine in the plasma membrane during apoptosis was measured by flow cytometry using FITC-conjugated annexin V (BD Pharmingen, San Diego, Calif.). NuMA release into the supernatant was determined using a commercial ELISA kit (Oncogen/Calbiochem, Cambridge, Mass.).
Jurkat human leukemia T cells were incubated with 50 μM of 3, 4, 5, 6 and 7 GT base sequences, a 5 base ACGT sequence, 6 base AG, GG, AGT and CGT sequences and a 7 base GG sequence.
Jurkat human leukemia T cells (1×10^6/ml) were incubated with 6 and 27 GT base sequences (Table 32). NuMA was determined as in Example 23.
Jurkat human cell leukemia T cells were incubated for 24 h with 6 base GT SEQ ID NO:25, complementary 6 base AC SEQ ID NO:79, and 6 base GT SEQ ID NO:25+6 base AC SEQ ID NO:79. GT SEQ ID NO:25 and AC SEQ ID NO:79 were hybridized by mixing the sequences (1:1) and heating for 10 minutes at 65° C. As controls, GT SEQ ID NO:25 and AC SEQ ID NO:79 were heated for 10 minutes at 65° C. (Table 33). Apoptosis was evaluated as in Example 23.

[3] = test system: Jurkat human leukemia T cells; assay: Inhibition of Jurkat human leukemia T cell proliferation (MTT reduction); details: for % INHIBITION of Jurkat human leukemia T cell proliferation: 100 μg/ml sequence, 48 h, 2.5×10^5 cells/ml
Description: (§1) Cells were seeded in 6 (1 ml/well), 24 (0.5 ml/well) or 96 (0.1 ml/well) well flat-bottom microplates and were maintained at 37° C. in a 5% CO2 atmosphere. Unless stated otherwise, 2.5×10^5 cells/ml were incubated with 0 μg/ml (control) and 100 μg/ml (treated) of 2 to 45 base sequences containing A, C, G and T for 48 h.
MTT was measured at a wavelength of 570 nm using a multiplate spectrophotometer reader (ELX800, Bio-TEK Instruments Inc., Winooski, Vt.).
Jurkat human leukemia T cells are an atypical multi-drug resistant human suspension tumor cell model.

[4] = test system: THP-1 human acute monocytic leukemia cells; assay: Cytokine production by THP-1 cells (ELISA); details: THP-1, 1×10^6 cells, 100 μg/ml, 48 h; for ↑ IL-12 (fold increase treated vs control cells): p70 complex and free p40
Description: (§2) Unless stated otherwise, 1×10^6 cells were incubated with 100 μg/ml of each of the sequences tested for 48 h at 37° C. in 5% CO2. Production of cytokines IL-6, IL-10, IL-12, IL-1beta and TNF-alpha was determined in pg/ml in 100 μl of culture supernatant using the appropriate commercial ELISA (BioSource, Camarillo Calif.). The IL-12 ELISA measures both IL-12 p70 complex and free p40 subunit. Results are expressed as the “fold” (×) increase in cytokine production by treated cells compared to control cells.
THP-1 human acute monocytic leukemia cells were incubated with 2, 3, 6, 9, 12, 14, 15 and 18 base GT sequences and production of the cyotkine IL-6 was determined (Table 35).
THP-1 human acute monocytic leukemia cells were incubated with 6 base GT, AG, CG, GG, AGT and CGT sequences and production of the cytokines IL-12 and IL-6 was determined (Table 36).
THP-1 human acute monocytic leukemia cells were incubated with 6 base GT sequences, having either an oxygen (phosphodiester) or a sulfur (phosphorothioate) as the nonbridging atom on the phosphate groups and production of the cytokine IL-12 was determined (Table 39).
THP-1 human acute monocytic leukemia cells were incubated with 6 base GT SEQ ID NO:25, having either an oxygen (phosphodiester) or a sulfur (phosphorothioate) as the nonbridging atom on the phosphate groups and production of the cytokine IL-12 was determined (Table 40).

[5] = test system: human peripheral blood mononuclear cells; assay: Cytokine production by human PBMC (ELISA); details: PBMC of 7 healthy humans, 100 μg/ml, 48 h
Description: as §2
Peripheral blood mononuclear cells (hereinafter, “PBMCs”) were isolated from 7 healthy humans by Ficoll-Hypaque (Amersham Pharmacia Biotech, Baie d'Urfée, Québec, Canada) by density gradient centrifugation of whole blood. PBMCs were incubated with 6 base GT, AGT, CGT, AG, CG and GG sequences and production of the cytokines IL-1beta, IL-6, IL-10 and IL-12 were determined.

chimpanzee PBMCs = assay: Cytokine production by chimpanzee PBMC (ELISA); details: PBMC of 4 healthy chimpanzees, 100 μg/ml, 48 h
Description: as §2
PBMCs were isolated from 4 healthy chimpanzees as in Example 35. Chimpanzee PBMCs were incubated with 6 base GT, AGT, CGT, AG, CG and GG sequences and production of the cytokines IL-10, IL-12 and TNF-alpha was determined (Table 41).

rhesus monkey PBMCs = assay: Cytokine production by rhesus monkey PBMC (ELISA); details: PBMC of 4 healthy rhesus monkeys, 100 μg/ml, 48 h
Description: as §2
PBMCs were isolated from 4 healthy rhesus monkeys as in Example 35. PBMCs were incubated with 6 base GT, AGT, CGT, AG, CG ands GG sequences and production of the cytokines IL-6, IL-12 and TNF-alpha was determined (Table 42).

[6] = test system: MCF-7 human breast cancer cells; assay: Inhibition of MCF-7 cell proliferation (MTT); details: 100 μg/ml, 48 h, 5×10^5 cells/ml
Description: as §1
Cell proliferation was measured using dimethylthiazol-diphenyl-tetrazolium (MTT) reduction (Mosman et al. J. Immunol. Methods 65:55, 1983). MTT was measured at a wavelength of 570 nm using a multiplate spectrophotometer reader (ELX800, Bio-TEK Instruments Inc., Winooski, Vt.).
MCF-7 human breast cancer cells are a caspase 3 negative, estrogen-dependent human solid tumor model. MCF-7 cells (5×10^5 cells/ml) were incubated with 3 and 6 base GT sequences (Table 7).

[7] = Jurkat 1×10^6 cells/ml, sequences heated 10 minutes at 65° C.

| Substance | % INHIBITION of Jurkat human leukemia T cell proliferation [3] [%] | % of cells in phase: G0/G1 ([1]; Jurkat, 100 μg/ml) [%] | % of cells in phase: G2/M ([1]; Jurkat, 100 μg/ml) [%] | % of cells in phase: SE ([1]; Jurkat, 100 μg/ml) [%] | % of cells in phase: SL ([1]; Jurkat, 100 μg/ml) [%] | % of cells in phase: SM ([1]; Jurkat, 100 μg/ml) [%] | Arrest (cell cycle) ([1]; Jurkat, 100 μg/ml) | ↑ IL-12 (fold increase treated vs control cells) [4] [x] | % INHIBITION of MCF-7 human breast cancer cell proliferation [6] [%] | other results |
| --- | --- | --- | --- | --- | --- | --- | --- | --- | --- | --- |
| CC(AC)1CC (DNA CCACCC; unmodified DNA) [SEQ ID NO:79] | – | – | – | – | – | – | – | – | – | % cells in phase: G0/G1 [1, 7]: 36.0%; % cells in phase: G2/M [1, 7]: 30.5%; % cells in phase: SE [1, 7]: 10.4%; % cells in phase: SL [1, 7]: 9.7%; % cells in phase: SM [1, 7]: 13.4%; Arrest (cell cycle) [1, 7]: had no effect on the cell cycle and None; % NuMA released (untreated vs treated cells) ([2]; Jurkat, 24 h, sequences heated 10 minutes at 65° C.): 9% |
| GGAAGG (unmodified DNA) [SEQ ID NO:42] | 22 | 48.0 | 34.1 | 19.8 | 5.8 | 8.5 | End | 4.1 | – | ↑ IL-6 (fold increase treated vs control cells) [4]: 29.2x; IL-1 beta fold increase: mean +/− SD [5]: 3.5 +/− 3.9 fold increase; IL-6 fold increase: mean +/− SD [5]: 11.8 +/− 5.8 fold increase; IL-10 fold increase: mean +/− SD [5]: 1.1 +/− 0.2 fold increase; IL-12 fold increase: mean +/− SD [5]: 3.0 +/− 2.7 fold increase; IL-10 fold increase: mean +/− SD (chimpanzee PBMCs): 9.9 +/− 8.9 fold increase; IL-12 fold increase: mean +/− SD (chimpanzee PBMCs): 15.6 +/− 10.6 fold increase; TNF-alpha fold increase: mean +/− SD (chimpanzee PBMCs): 14.4 +/− 7.1 fold increase; IL-10 fold increase: mean +/− SD (rhesus monkey PBMCs): 1.2 +/− 0.2 fold increase; IL-12 fold increase: mean +/− SD (rhesus monkey PBMCs): 11.9 +/− 5.4 fold increase; TNF-alpha fold increase: mean +/− SD (rhesus monkey PBMCs): 16.5 +/− 4.5 fold increase |
| GGCCGG [SEQ ID NO:43] | 29 | 26.5 | 18.7 | 21.3 | 10.7 | 22.8 | End SM | 3.1 | – | ↑ IL-6 (fold increase treated vs control cells) [4]: 17.1x; IL-1 beta fold increase: mean +/− SD [5]: 1.5 +/− 0.9 fold increase; IL-6 fold increase: mean +/− SD [5]: 14.9 +/− 10.2 fold increase; IL-10 fold increase: mean +/− SD [5]: 1.2 +/− 0.3 fold increase; IL-12 fold increase: mean +/− SD [5]: 2.5 +/− 2.0 fold increase; IL-10 fold increase: mean +/− SD (chimpanzee PBMCs): 13.6 +/− 9.0 fold increase; IL-12 fold increase: mean +/− SD (chimpanzee PBMCs): 15.1 +/− 10.2 fold increase; TNF-alpha fold increase: mean +/− SD (chimpanzee PBMCs): 14.0 +/− 6.6 fold increase; IL-10 fold increase: mean +/− SD (rhesus monkey PBMCs): 1.0 +/− 0.2 fold increase; IL-12 fold increase: mean +/− SD (rhesus monkey PBMCs): 11.7 +/− 4.8 fold increase; TNF-alpha fold increase: mean +/− SD (rhesus monkey PBMCs): 16.9 +/− 3.5 fold increase |
| GGGGGGGTGGGGGGGTGGGGGGGTGGG (unmodified DNA) [SEQ ID NO:4] | 11 | 36.5 | 22.3 | 16.3 | 11.1 | 13.8 | None | – | – | % NUMA RELEASED [2]: 90% |
| GGGGGTGGGGGTGGGGGTGGGGGTGGG (unmodified DNA) [SEQ ID NO:3] | 24 | 40.5 | 23.6 | 13.3 | 9.7 | 12.9 | None | – | – | % NUMA RELEASED [2]: 139% |
| GoGoGoTsGoGo | 12 | – | – | – | – | – | – | 0.2 | 0 | – |
| GoGoGsToGoGo | 17 | – | – | – | – | – | – | 0.1 | 12 | – |
| GoGoGsTsGoGo | 13 | – | – | – | – | – | – | 0.5 | 43 | – |
| GoGsGoToGsGo | 11 | – | – | – | – | – | – | −0.1 | 13 | – |
| GsGoGoToGoGs | 16 | – | – | – | – | – | – | −0.1 | 12 | – |
| GsGsGoToGsGs | −13 | – | – | – | – | – | – | 0 | −3 | – |
| TGGTTG [SEQ ID NO:29] | 42 | – | – | – | – | – | – | 4.1 | – | % INHIBITION of Jurkat proliferation at suboptimal concentration ([3]; 5.0 μg/ml of each 6 base sequence, alone or two together): −1%; ↑ IL-6 (fold increase treated vs control cells) [4]: 10.5x; IL-1 beta fold increase: mean +/− SD [5]: 1.7 +/− 1.0 fold increase; IL-6 fold increase: mean +/− SD [5]: 9.3 +/− 12.1 fold increase; IL-10 fold increase: mean +/− SD [5]: 1.0 +/− 0.1 fold increase; IL-12 fold increase: mean +/− SD [5]: 3.3 +/− 4.2 fold increase; IL-10 fold increase: mean +/− SD (chimpanzee PBMCs): 3.1 +/− 2.0 fold increase; IL-12 fold increase: mean +/− SD (chimpanzee PBMCs): 13.6 +/− 8.8 fold increase; TNF-alpha fold increase: mean +/− SD (chimpanzee PBMCs): 12.4 +/− 7.3 fold increase; IL-10 fold increase: mean +/− SD (rhesus monkey PBMCs): 1.1 +/− 0.2 fold increase; IL-12 fold increase: mean +/− SD (rhesus monkey PBMCs): 11.1 +/− 4.2 fold increase; TNF-alpha fold increase: mean +/− SD (rhesus monkey PBMCs): 16.5 +/− 2.7 fold increase |
